Literature values as cited in patent US7220434B2, “Dual-release compositions of a cyclooxygenase-2 inhibitor” (Pharmacia Corporation (of Pfizer, Inc.), priority 2000, dated 2007).

Legend:
[1] = conventionally formulated for oral delivery

| solubility in water | solubility in aqueous media (aqueous media) | Compound | half-life [1] |
| --- | --- | --- | --- |
| low solubility in water | unusually insoluble | Cc1ccc(-c2cc(C(F)(F)F)nn2-c2ccc(S(N)(=O)=O)cc2)cc1 [celecoxib, 4-[5-(4-methylphenyl)-3-(trifluoromethyl)-1H-pyrazol-1-yl]benzenesulfonamide] | – |
| low solubility in water | – | COc1ccc(-c2cc(C(F)F)nn2-c2ccc(S(N)(=O)=O)cc2)cc1F [deracoxib] | – |
| low solubility in water | – | CS(=O)(=O)c1ccc(C2=C(c3ccccc3)C(=O)OC2)cc1 [rofecoxib, 3-phenyl-4-[4-(methylsulfonyl)phenyl]-5H-furan-2-one] | sufficient to provide therapeutic benefit over a 24-hour period |
| low solubility in water | – | Cc1onc(-c2ccccc2)c1-c1ccc(S(N)(=O)=O)cc1 [valdecoxib, 4-[5-methyl-3-phenylisoxazol-4-yl]benzenesulfonamide] | – |
